Laboratory results taken from US9644083B2, “Cellulose acylate film, polarizing plate protective film, polarizing plate and liquid crystal display using the same” (FUJIFILM Corporation, priority 2014, dated 2017).

Assay: acid dissociation constant pKa by alkali titration method
Assay type: physicochemical
Conditions: 25° C., mixed solvent tetrahydrofuran 60 ml/water 40 ml
Description: The cellulose acylate film of the present invention contains at least two chelating agents. One of the two chelating agents is a chelating agent having a […] pKa and, in the present invention, such is a chelating agent (chelating agent A) having at least one functional group whose acid dissociation constant pKa measured at 25° C. in a mixed solvent having a mixing ratio of tetrahydrofuran 60 ml/water 40 ml is 6 or less.
The acid dissociation constant pKa can be measured in accordance with an alkali titration method described in Experimental Chemistry Course, 2nd Ed., pp. 215-217, published by MARUZEN PUBLISHING CO., LTD.
At least one residual chelating agent of the at least two chelating agents which the cellulose acylate film of the present invention contains, is a chelating agent B having at least one functional group of a conjugate acid, whose pKa measured at 25° C. in a mixed solvent having a mixing ratio of tetrahydrofuran 60 ml/water 40 ml, is 7 or more.

Chelating agent A pKa of acidic group | SMILES
Less than 3 | O=P(O)(O)CN(CCN(CP(=O)(O)O)CP(=O)(O)O)CP(=O)(O)O [PH-540, Ethylenediamine N,N,N′,N′-tetrakis(methylenephosphonic acid)]
6.0 | CCCCCCCCCCCCCCCC(=O)OC[C@H](O)[C@H]1OC(=O)C(O)=C1O [L-ascorbic acid palmitic acid ester]
3.6 | O=C(O)CN(CCN(CC(=O)O)CC(=O)O)CCN(CC(=O)O)CC(=O)O [diethylenetriaminepentaacetic acid]

Same assay, conditions: pKa of conjugate acid; 25° C., mixed solvent tetrahydrofuran 60 ml/water 40 ml; read-out: Chelating agent B pKa of basic group

pKa | SMILES
8.9 | NCCNCCNCCN [triethylenetetramine]
14 | ONc1nc(NC2CCCCC2)nc(NC2CCCCC2)n1 [Chelating agent D]
8.4 | CC(O)CN(CCN(CC(C)O)CC(C)O)CCN(CC(C)O)CC(C)O (stereo not drawn) [N,N,N′,N″,N″-pentakis(2-hydroxypropyl)diethylenetriamine]
